Holding throughout (format): functional, cell-based
For assay [1], the target named is T1, Cannabinoid receptor 2 (Homo sapiens, UniProt P34972). The experiment in a line: Agonist activity at human CB2 receptor expressed in CHO cells assessed as inhibition of accumulation of forskolin-stimulated cAMP level by measuring maximum activation incubated for 35 mins by chemiluminescence based assay relative to control. Particulars: filed as agonist. On the technique in general: Cyclic AMP is a second messenger, typically raised through Gs and lowered through Gi signalling.

Assay [2] addresses T1, Cannabinoid receptor 2. As to the kind of experiment: Agonist activity at human CB2 receptor expressed in PathHunter CHO-K1 CNR2 beta-arrestin cells assessed as beta-arrestin recruitment incubated for 3 hrs by plate reader analysis.
The target in assay [3] is T1, Cannabinoid receptor 2. As to the kind of experiment: Agonist activity at human CB2 receptor expressed in CHO cells assessed as inhibition of accumulation of forskolin-stimulated cAMP level incubated for 35 mins by chemiluminescence based assay.

The results in this text go back to ChEMBL document CHEMBL5104219, “Pyrazolidine Carboxamide Analogs as Selective Agonists of the Cannabinoid 2 Receptor” (ACS Med Chem Lett, 2022).

T1 sequence (P34972 whole entry): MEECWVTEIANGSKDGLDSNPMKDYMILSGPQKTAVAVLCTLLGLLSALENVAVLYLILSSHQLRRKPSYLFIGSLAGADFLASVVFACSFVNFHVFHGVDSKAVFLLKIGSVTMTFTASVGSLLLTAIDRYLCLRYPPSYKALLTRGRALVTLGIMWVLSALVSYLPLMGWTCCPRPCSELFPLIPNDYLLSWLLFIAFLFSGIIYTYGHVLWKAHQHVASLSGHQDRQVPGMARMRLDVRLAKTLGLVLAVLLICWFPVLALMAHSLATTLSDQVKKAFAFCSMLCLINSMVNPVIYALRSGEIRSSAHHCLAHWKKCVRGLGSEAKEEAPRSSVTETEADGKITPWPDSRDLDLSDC

As to `CC(C)(CO)c1cc(NC(=O)N2CCCN2c2ccc(C(F)(F)F)cc2)on1`, on Cannabinoid receptor 2 [1], the Emax (in general, the size of the effect at its maximum, as opposed to the concentration needed) amounted to 99.7%. In addition, the EC50 (in general, the concentration at which the effect is half-maximal) at Cannabinoid receptor 2 [2] was 0.167 µM; on Cannabinoid receptor 2 [3], 0.0427 µM.

`Cc1nc(N2CCN(C)CC2)c2nc(-c3ccccc3Cl)n(C3CCOCC3)c2n1`: the Emax at Cannabinoid receptor 2 [1] stood at 52.6%.

In the case of `CC(C)(C)c1cc(NC(=O)N2CCCN2c2ccc(C(F)(F)F)cc2)on1`, the Emax on Cannabinoid receptor 2 [1] worked out at 114%. For the same compound, the concentration giving a half-maximal response (EC50) at Cannabinoid receptor 2 [2] was more than 1 µM.
